Key:
[1] = target: Casein kinase I isoform gamma-1 (Homo sapiens) (UniProt Q9HCP0); test: Inhibition of CK1gamma1 (unknown origin) at 10 uM after 120 mins P33 radiolabeled kinase activity assay
[2] = target: T1, Receptor-interacting serine/threonine-protein kinase 1 (Homo sapiens) (UniProt Q13546); test: Inhibition of RIP (unknown origin) at 10 uM after 120 mins P33 radiolabeled kinase activity assay
T1 sequence (whole entry): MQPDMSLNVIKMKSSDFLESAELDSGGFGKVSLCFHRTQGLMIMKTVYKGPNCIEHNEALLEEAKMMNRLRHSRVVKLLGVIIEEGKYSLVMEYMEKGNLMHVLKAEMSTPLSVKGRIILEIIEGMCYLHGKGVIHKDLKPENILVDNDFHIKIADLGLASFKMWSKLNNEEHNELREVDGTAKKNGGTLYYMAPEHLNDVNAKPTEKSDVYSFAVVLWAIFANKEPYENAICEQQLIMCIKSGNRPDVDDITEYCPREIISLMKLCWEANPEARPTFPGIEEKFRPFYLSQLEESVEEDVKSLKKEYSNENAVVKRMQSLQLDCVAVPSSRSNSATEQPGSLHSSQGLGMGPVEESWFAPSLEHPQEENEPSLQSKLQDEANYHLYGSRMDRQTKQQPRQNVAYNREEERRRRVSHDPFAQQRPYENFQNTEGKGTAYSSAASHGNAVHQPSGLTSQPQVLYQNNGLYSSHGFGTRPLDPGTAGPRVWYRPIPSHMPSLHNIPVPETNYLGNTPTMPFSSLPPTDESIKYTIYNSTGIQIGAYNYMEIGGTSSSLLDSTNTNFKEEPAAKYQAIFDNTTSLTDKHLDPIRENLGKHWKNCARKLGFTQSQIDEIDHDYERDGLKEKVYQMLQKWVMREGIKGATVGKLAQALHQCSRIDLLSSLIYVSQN

[3] = target: T2, Muscle, skeletal receptor tyrosine-protein kinase (Homo sapiens) (UniProt O15146); test: Inhibition of MUSK (unknown origin) at 10 uM after 120 mins P33 radiolabeled kinase activity assay
T2 sequence (whole entry): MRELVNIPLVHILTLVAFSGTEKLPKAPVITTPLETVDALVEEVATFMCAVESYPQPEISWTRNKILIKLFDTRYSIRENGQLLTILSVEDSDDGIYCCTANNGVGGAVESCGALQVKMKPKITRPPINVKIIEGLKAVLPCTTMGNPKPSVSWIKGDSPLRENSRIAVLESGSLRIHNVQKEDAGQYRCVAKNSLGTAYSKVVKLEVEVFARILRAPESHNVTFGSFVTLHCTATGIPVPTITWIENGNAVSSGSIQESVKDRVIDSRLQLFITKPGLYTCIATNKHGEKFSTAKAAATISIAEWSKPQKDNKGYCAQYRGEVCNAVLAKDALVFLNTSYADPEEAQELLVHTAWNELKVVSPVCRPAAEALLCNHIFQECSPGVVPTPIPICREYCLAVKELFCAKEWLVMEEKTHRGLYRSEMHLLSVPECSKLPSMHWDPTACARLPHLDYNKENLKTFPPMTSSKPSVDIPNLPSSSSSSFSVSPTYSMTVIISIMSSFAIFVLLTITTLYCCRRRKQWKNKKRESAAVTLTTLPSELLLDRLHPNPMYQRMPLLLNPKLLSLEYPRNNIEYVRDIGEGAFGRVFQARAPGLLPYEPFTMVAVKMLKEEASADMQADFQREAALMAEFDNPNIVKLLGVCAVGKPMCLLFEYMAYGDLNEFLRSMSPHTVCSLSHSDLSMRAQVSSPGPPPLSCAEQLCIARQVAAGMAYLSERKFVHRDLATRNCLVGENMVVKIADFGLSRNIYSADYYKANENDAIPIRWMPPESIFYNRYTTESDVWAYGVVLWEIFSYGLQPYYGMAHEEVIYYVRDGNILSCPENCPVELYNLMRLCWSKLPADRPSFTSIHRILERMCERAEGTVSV

[4] = target: Mitogen-activated protein kinase kinase kinase 12 (Homo sapiens) (UniProt Q12852); test: Inhibition of DLK (unknown origin) at 10 uM after 120 mins P33 radiolabeled kinase activity assay
[5] = target: Calcium/calmodulin-dependent protein kinase type II subunit delta (Homo sapiens) (UniProt Q13557); test: Inhibition of CAMK2delta (unknown origin) at 10 uM after 120 mins P33 radiolabeled kinase activity assay
[6] = target: Epithelial discoidin domain-containing receptor 1 (Homo sapiens) (UniProt Q08345); test: Inhibition of DDR1 (unknown origin) at 10 uM after 120 mins P33 radiolabeled kinase activity assay
[7] = target: T3, Ephrin type-B receptor 3 (Homo sapiens) (UniProt P54753); test: Inhibition of EPHB3 (unknown origin) at 10 uM after 120 mins P33 radiolabeled kinase activity assay
T3 sequence (whole entry): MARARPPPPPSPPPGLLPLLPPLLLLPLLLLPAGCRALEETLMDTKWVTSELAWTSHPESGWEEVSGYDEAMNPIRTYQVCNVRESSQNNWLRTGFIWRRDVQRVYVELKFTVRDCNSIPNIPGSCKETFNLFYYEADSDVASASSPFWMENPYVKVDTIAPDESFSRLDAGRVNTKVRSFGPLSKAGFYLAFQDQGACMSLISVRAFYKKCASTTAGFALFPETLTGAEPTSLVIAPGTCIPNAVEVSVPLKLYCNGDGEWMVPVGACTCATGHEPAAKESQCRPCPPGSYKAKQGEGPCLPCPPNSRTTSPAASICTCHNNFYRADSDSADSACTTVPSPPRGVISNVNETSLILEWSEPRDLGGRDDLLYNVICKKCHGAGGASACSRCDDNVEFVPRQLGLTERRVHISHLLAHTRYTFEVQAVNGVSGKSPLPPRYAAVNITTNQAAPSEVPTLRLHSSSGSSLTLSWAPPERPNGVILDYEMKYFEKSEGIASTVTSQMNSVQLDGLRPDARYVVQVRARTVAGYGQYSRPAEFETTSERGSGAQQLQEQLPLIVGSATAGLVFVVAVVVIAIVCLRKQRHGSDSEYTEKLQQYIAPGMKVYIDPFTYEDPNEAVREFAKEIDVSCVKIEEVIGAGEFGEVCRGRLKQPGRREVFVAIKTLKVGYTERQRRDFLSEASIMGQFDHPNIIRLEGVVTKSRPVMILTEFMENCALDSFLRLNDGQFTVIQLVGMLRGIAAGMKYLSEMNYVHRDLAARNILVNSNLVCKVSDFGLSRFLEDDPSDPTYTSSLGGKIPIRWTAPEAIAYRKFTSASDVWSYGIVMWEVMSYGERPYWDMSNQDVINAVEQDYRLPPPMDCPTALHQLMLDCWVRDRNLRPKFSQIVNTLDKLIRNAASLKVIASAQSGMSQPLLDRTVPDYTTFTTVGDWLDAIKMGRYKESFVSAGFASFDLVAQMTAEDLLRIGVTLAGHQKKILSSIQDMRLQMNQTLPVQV

Calcium/calmodulin-dependent protein kinase type II subunit delta (Homo sapiens), sequence (Q13557 whole entry, the tested form may be a part): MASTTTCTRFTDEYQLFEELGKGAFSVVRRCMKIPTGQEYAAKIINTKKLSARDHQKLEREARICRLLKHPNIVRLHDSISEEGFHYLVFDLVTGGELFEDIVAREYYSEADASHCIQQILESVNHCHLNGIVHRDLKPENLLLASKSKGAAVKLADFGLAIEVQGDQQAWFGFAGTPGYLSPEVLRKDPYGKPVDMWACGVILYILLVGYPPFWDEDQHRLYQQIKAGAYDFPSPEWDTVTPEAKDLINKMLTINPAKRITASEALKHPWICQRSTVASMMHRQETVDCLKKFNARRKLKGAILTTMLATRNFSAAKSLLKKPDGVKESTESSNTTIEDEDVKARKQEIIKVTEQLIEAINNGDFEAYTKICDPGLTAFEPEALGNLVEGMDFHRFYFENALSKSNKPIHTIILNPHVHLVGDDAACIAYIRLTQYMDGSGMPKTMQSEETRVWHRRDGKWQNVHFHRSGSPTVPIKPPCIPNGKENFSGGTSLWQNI
Casein kinase I isoform gamma-1 (Homo sapiens), sequence (Q9HCP0 whole entry, looked up, canonical isoform): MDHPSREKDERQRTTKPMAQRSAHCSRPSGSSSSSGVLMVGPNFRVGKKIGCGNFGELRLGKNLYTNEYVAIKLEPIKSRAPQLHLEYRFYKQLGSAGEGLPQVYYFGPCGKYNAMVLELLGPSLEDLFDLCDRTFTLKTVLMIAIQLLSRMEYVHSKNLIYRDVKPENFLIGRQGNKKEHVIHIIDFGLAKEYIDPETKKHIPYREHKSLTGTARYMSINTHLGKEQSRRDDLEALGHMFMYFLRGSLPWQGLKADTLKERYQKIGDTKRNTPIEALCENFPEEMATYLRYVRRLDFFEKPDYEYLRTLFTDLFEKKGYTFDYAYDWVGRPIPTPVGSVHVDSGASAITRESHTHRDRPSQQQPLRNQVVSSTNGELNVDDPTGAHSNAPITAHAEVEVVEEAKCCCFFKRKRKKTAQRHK
Epithelial discoidin domain-containing receptor 1 (Homo sapiens), sequence (Q08345 whole entry, the tested form may be a part): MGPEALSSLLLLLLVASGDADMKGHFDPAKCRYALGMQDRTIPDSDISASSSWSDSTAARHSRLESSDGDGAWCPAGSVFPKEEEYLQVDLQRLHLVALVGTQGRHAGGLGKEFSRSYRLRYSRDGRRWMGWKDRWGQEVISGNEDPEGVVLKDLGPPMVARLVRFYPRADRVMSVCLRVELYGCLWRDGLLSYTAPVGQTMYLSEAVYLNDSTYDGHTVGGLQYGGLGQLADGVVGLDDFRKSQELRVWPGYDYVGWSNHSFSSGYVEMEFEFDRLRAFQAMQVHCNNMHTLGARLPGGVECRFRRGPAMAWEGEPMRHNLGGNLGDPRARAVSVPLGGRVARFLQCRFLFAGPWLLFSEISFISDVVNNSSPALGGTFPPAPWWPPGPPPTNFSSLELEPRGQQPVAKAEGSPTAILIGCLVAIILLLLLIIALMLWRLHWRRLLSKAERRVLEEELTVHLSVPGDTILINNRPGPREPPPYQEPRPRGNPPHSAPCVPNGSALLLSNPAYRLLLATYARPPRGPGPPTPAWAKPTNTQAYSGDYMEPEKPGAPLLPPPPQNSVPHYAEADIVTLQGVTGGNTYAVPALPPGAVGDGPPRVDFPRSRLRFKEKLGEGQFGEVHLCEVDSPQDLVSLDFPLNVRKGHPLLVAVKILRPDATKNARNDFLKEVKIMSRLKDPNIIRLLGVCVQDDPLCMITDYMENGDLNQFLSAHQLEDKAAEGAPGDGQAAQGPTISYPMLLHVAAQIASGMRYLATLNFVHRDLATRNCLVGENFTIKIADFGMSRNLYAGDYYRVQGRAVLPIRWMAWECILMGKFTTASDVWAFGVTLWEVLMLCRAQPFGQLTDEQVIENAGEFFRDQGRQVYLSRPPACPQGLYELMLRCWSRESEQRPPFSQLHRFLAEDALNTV
Mitogen-activated protein kinase kinase kinase 12 (Homo sapiens), sequence (Q12852 whole entry, looked up): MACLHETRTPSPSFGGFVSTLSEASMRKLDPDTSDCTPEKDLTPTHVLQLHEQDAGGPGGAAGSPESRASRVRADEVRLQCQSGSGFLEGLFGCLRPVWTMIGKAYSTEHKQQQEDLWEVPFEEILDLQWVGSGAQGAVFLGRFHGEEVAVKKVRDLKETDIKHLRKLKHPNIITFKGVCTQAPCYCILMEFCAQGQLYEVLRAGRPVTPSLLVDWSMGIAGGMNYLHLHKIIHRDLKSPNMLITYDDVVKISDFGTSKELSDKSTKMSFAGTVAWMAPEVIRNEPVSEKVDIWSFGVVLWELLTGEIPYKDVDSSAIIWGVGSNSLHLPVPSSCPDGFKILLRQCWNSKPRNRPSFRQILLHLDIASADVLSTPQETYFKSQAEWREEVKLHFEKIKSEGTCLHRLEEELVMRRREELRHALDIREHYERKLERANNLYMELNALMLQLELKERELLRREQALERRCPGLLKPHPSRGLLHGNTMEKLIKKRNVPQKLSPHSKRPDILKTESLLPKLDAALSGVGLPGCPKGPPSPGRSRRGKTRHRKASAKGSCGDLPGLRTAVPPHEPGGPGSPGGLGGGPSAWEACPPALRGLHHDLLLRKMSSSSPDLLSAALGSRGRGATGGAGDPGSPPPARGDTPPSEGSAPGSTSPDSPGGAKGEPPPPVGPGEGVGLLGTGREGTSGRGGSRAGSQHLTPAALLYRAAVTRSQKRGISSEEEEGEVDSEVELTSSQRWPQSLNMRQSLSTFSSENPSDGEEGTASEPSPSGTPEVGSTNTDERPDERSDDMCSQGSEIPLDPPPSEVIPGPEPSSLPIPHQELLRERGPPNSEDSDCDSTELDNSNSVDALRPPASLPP

inhibition [1] [%]	inhibition [2] [%]	inhibition [3] [%]	inhibition [4] [%]	inhibition [5] [%]	inhibition [6] [%]	inhibition [7] [%]	SMILES
7.23	33.1	-5.11	5.39	-0.09	66	5.87	COCCNC(=O)c1ccc2c(c1)nc(-c1cnc(-c3ccc(Cl)cc3)[nH]1)n2CCOC
35.1	54.4	33.2	53	7.04	98.6	7.1	CS(=O)(=O)c1cccc(Nc2nccc(-c3sc(N4CCOCC4)nc3-c3cccc(NS(=O)(=O)c4c(F)cccc4F)c3)n2)c1
6.78	53.2	16.4	8.04	3.15	98.1	93.3	CC(C)(C)c1cc(NC(=O)Nc2ccc(Oc3ccncc3)cc2)no1
